Patent US20180334436A1 (VIIV HEALTHCARE UK LIMITED, priority 2015, published 2018)

test system: HIV; experiment: MT4 assay (anti-HIV activity); assay type: cell-based; settings: Human immunodeficiency virus 1, 96 h, antiviral HIV activity in HTLV-1 transformed cell line MT-4; luciferase read 96 hours later; 10 point dose response
Protocol: Antiviral HIV activity and cytotoxicity values for compounds of the invention from Table 1 were measured in parallel in the HTLV-1 transformed cell line MT-4 based on the method previously described (Hazen et al., 2007, In vitro antiviral activity of the novel, tyrosyl-based human immunodeficiency virus (HIV) type 1 protease inhibitor brecanavir (GW640385) in combination with other antiretrovirals and against a panel of protease inhibitor-resistant HIV (Hazen et al., “In vitro antiviral activity of the novel, tyrosyl-based human immunodeficiency virus (HIV) type 1 protease inhibitor brecanavir (GW640385) in combination with other antiretrovirals and against a panel of protease inhibitor-resistant HIV”, Antimicrob. Agents Chemother. 2007, 51: 3147-3154; and Pauwels et al., “Sensitive and rapid assay on MT-4 cells for the detection of antiviral compounds against the AIDS virus”, J. of Virological Methods 1987, 16: 171-185).
Luciferase activity was measured 96 hours later by adding a cell titer glo (Promega, Madison, Wis.). Percent inhibition of cell protection data was plotted relative to no compound control. Under the same condition, cytotoxicity of the compounds was determined using cell titer Glo™ (Promega, Madison, Wis.). IC50s were determined from a 10 point dose response curve using 3-4-fold serial dilution for each compound, which spans a concentration range >1000 fold.
These values are plotted against the molar compound concentrations using the standard four parameter logistic equation:
y=((Vmax*x̂n)/(K̂n+x̂n))+Y2
Y2=minimum y n=slope factor
Vmax=maximum y x=compound concentration [M]

| Structure (SMILES) | IC50 |
| --- | --- |
| Cc1ccc(-c2c(C)c3c(c(C)c2C(OC(C)(C)C)C(=O)O)CN(Cc2cccc(F)c2)CC3)cc1 (stereo not shown) [Example 1, 2-(tert-Butoxy)-2-(2-(3-fluorobenzyl)-5,8-dimethyl-6-(p-tolyl)-1,2,3,4-tetrahydroisoquinolin-7-yl)acetic Acid] | 3250 nM |
| Cc1ccc(-c2c(C)c3c(c(C)c2C(OC(C)(C)C)C(=O)O)CN(C2CCCCC2)CC3)cc1 (stereo not shown) [Example 2, 2-(tert-Butoxy)-2-(2-cyclohexyl-5,8-dimethyl-6-(p-tolyl)-1,2,3,4-tetrahydroisoquinolin-7-yl)acetic Acid] | 1720 nM |
| Cc1ccc(-c2c(C)c3c(c(C)c2C(OC(C)(C)C)C(=O)O)CN(CC2CCCCC2)CC3)cc1 (stereo not shown) [Example 3, 2-(tert-Butoxy)-2-(2-(cyclohexylmethyl)-5,8-dimethyl-6-(p-tolyl)-1,2,3,4-tetrahydroisoquinolin-7-yl)acetic Acid] | 3200 nM |
| Cc1ccc(-c2c(C)c3c(c(C)c2C(OC(C)(C)C)C(=O)O)CN(C(=O)C2CCCCC2)CC3)cc1 (stereo not shown) [Example 4, 2-(tert-Butoxy)-2-(2-(cyclohexanecarbonyl)-5,8-dimethyl-6-(p-tolyl)-1,2,3,4-tetrahydroisoquinolin-7-yl)acetic Acid] | 323 nM |
| Cc1ccc(-c2c(C)c3c(c(C)c2C(OC(C)(C)C)C(=O)O)CN(C(=O)C(=O)N2CCCCC2)CC3)cc1 (stereo not shown) [Example 5, 2-(tert-Butoxy)-2-(5,8-dimethyl-2-(2-oxo-2-(piperidin-1-yl)acetyl)-6-(p-tolyl)-1,2,3,4-tetrahydroisoquinolin-7-yl)acetic Acid] | 157 nM |
| Cc1ccc(-c2c(C)c3c(c(C)c2C(OC(C)(C)C)C(=O)O)CN(C(=O)c2cccc(F)c2)CC3)cc1 (stereo not shown) [Example 6] | 347 nM |
| Cc1ccc(-c2c(C)c3c(c(C)c2C(OC(C)(C)C)C(=O)O)CN(CC(=O)N2CCCCC2)CC3)cc1 (stereo not shown) [Example 7, 2-(tert-Butoxy)-2-(5,8-dimethyl-2-(2-oxo-2-(piperidin-1-yl)ethyl)-6-(p-tolyl)-1,2,3,4-tetrahydroisoquinolin-7-yl)acetic Acid] | 418 nM |
| Cc1ccc(-c2c(C)c3c(c(C)c2C(OC(C)(C)C)C(=O)O)CN(c2ccccc2)CC3)cc1 (stereo not shown) [Example 8, 2-(tert-Butoxy)-2-(5,8-dimethyl-2-phenyl-6-(p-tolyl)-1,2,3,4-tetrahydroisoquinolin-7-yl)acetic Acid] | 6480 nM |
| Cc1ccc(-c2c(C)c3c(c(C)c2C(OC(C)(C)C)C(=O)O)CN(C(=O)N2CCCCC2)CC3)cc1 (stereo not shown) [Example 9, 2-(tert-Butoxy)-2-(5,8-dimethyl-2-(piperidine-1-carbonyl)-6-(p-tolyl)-1,2,3,4-tetrahydroisoquinolin-7-yl)acetic Acid] | 38 nM |
| Cc1ccc(-c2c(C)c3c(c(C)c2C(OC(C)(C)C)C(=O)O)CN(C(=O)NC2CCCCC2)CC3)cc1 (stereo not shown) [Example 10, 2-(tert-Butoxy)-2-(2-(cyclohexylcarbamoyl)-5,8-dimethyl-6-(p-tolyl)-1,2,3,4-tetrahydroisoquinolin-7-yl)acetic Acid] | 1480 nM |
| Cc1ccc(-c2c(C)c3c(c(C)c2C(OC(C)(C)C)C(=O)O)CN(S(=O)(=O)c2cccc(F)c2)CC3)cc1 (stereo not shown) [Example 11, 2-(tert-Butoxy)-2-(2-((3-fluorophenyl)sulfonyl)-5,8-dimethyl-6-(p-tolyl)-1,2,3,4-tetrahydroisoquinolin-7-yl)acetic Acid] | 817 nM |
| Cc1ccc(-c2c(C)c3c(c(C)c2[C@H](OC(C)(C)C)C(=O)O)CN(C(=O)N2CCCCC2)CC3)cc1 [Example 12, (S)-2-(tert-Butoxy)-2-(5,8-dimethyl-2-(piperidine-1-carbonyl)-6-(p-tolyl)-1,2,3,4-tetrahydroisoquinolin-7-yl)acetic Acid] | 139 nM |
| Cc1ccc(-c2c(C)c3c(c(C)c2[C@H](OC(C)(C)C)C(=O)O)CN(C(=O)N2CCC(C)(C)CC2)CC3)cc1 [Example 13, (S)-2-(tert-Butoxy)-2-(2-(4,4-dimethylpiperidine-1-carbonyl)-5,8-dimethyl-6-(p-tolyl)-1,2,3,4-tetrahydroisoquinolin-7-yl)acetic Acid] | 129 nM |
| Cc1ccc(-c2c(C)c3c(c(C)c2[C@H](OC(C)(C)C)C(=O)O)CN(C(=O)N2CCCC2)CC3)cc1 [Example 14, (S)-2-(tert-Butoxy)-2-(5,8-dimethyl-2-(pyrrolidine-1-carbonyl)-6-(p-tolyl)-1,2,3,4-tetrahydroisoquinolin-7-yl)acetic Acid] | 1110 nM |
| Cc1ccc(-c2c(C)c3c(c(C)c2[C@H](OC(C)(C)C)C(=O)O)CN(S(=O)(=O)N2CCC(C)(C)CC2)CC3)cc1 [Example 15, (S)-2-(tert-Butoxy)-2-(2-((4,4-dimethylpiperidin-1-yl)sulfonyl)-5,8-dimethyl-6-(p-tolyl)-1,2,3,4-tetrahydroisoquinolin-7-yl)acetic Acid] | 113 nM |
| Cc1ccc(-c2c(C)c3c(c(C)c2[C@H](OC(C)(C)C)C(=O)O)CN(S(=O)(=O)N2CCCCC2)CC3)cc1 [Example 16, (S)-2-(tert-Butoxy)-2-(5,8-dimethyl-2-(piperidin-1-ylsulfonyl)-6-(p-tolyl)-1,2,3,4-tetrahydroisoquinolin-7-yl)acetic Acid] | 34 nM |
| Cc1ccc(-c2c(C)c3c(c(C)c2[C@H](OC(C)(C)C)C(=O)O)CN(C(=O)OC(C)(C)C)CC3)cc1 [Example 17, (S)-2-(tert-Butoxy)-2-(2-(tert-butoxycarbonyl)-5,8-dimethyl-6-(p-tolyl)-1,2,3,4-tetrahydroisoquinolin-7-yl)acetic Acid] | 444 nM |
| Cc1ccc(-c2c(C)c3c(c(C)c2[C@H](OC(C)(C)C)C(=O)O)CN(S(=O)(=O)CC2CCCCC2)CC3)cc1 [Example 18, (S)-2-(tert-Butoxy)-2-(2-((cyclohexylmethyl)sulfonyl)-5,8-dimethyl-6-(p-tolyl)-1,2,3,4-tetrahydroisoquinolin-7-yl)acetic Acid] | 1180 nM |
| Cc1ccc(-c2c(C)c3c(c(C)c2[C@H](OC(C)(C)C)C(=O)O)CN(S(=O)(=O)C2CCCCC2)CC3)cc1 [Example 19, (S)-2-(tert-Butoxy)-2-(2-(cyclohexylsulfonyl)-5,8-dimethyl-6-(p-tolyl)-1,2,3,4-tetrahydroisoquinolin-7-yl)acetic Acid] | 1450 nM |
| Cc1ccc(-c2c(C)c3c(c(C)c2[C@H](OC(C)(C)C)C(=O)O)CN(C(=O)CC(C)(C)C)CC3)cc1 [Example 20, (S)-2-(tert-Butoxy)-2-(2-(3,3-dimethylbutanoyl)-5,8-dimethyl-6-(p-tolyl)-1,2,3,4-tetrahydroisoquinolin-7-yl)acetic Acid] | 119 nM |
| Cc1ccc(-c2c(C)c3c(c(C)c2C(OC(C)(C)C)C(=O)O)CCN(C2CCCCC2)C3)cc1 (stereo not shown) [Example 21, 2-(tert-Butoxy)-2-(2-cyclohexyl-5,8-dimethyl-7-(p-tolyl)-1,2,3,4-tetrahydroisoquinolin-6-yl)acetic Acid] | 27 nM |
| Cc1ccc(-c2c(C)c3c(c(C)c2C(OC(C)(C)C)C(=O)O)CCN(C(=O)c2cccc(F)c2)C3)cc1 (stereo not shown) [Example 22, 2-(tert-Butoxy)-2-(2-(3-fluorobenzoyl)-5,8-dimethyl-7-(p-tolyl)-1,2,3,4-tetrahydroisoquinolin-6-yl)acetic Acid] | 329 nM |
| Cc1ccc(-c2c(C)c3c(c(C)c2C(OC(C)(C)C)C(=O)O)CCN(C(=O)N2CCCCC2)C3)cc1 (stereo not shown) [Example 23, 2-(tert-Butoxy)-2-(5,8-dimethyl-2-(piperidine-1-carbonyl)-7-(p-tolyl)-1,2,3,4-tetrahydroisoquinolin-6-yl)acetic Acid] | 108 nM |
| Cc1ccc(-c2c(C)c3c(c(C)c2[C@H](OC(C)(C)C)C(=O)O)CCN(C(=O)C(C)(C)C)C3)cc1 [Example 24, (S)-2-(tert-Butoxy)-2-(5,8-dimethyl-2-pivaloyl-7-(p-tolyl)-1,2,3,4-tetrahydroisoquinolin-6-yl)acetic Acid] | 87 nM |
| Cc1ccc(-c2c(C)c3c(c(C)c2[C@H](OC(C)(C)C)C(=O)O)CCN(C(=O)CC(C)(C)C)C3)cc1 [Example 25, (S)-2-(tert-Butoxy)-2-(2-(3,3-dimethylbutanoyl)-5,8-dimethyl-7-(p-tolyl)-1,2,3,4-tetrahydroisoquinolin-6-yl)acetic Acid] | 95 nM |
| COc1c(F)cccc1C(=O)N1CCc2c(C)c([C@H](OC(C)(C)C)C(=O)O)c(-c3ccc(C)cc3)c(C)c2C1 [Example 26, (S)-2-(tert-Butoxy)-2-(2-(3-fluoro-2-methoxybenzoyl)-5,8-dimethyl-7-(p-tolyl)-1,2,3,4-tetrahydroisoquinolin-6-yl)acetic Acid] | 61 nM |
| Cc1ccc(-c2c(C)c3c(c(C)c2[C@H](OC(C)(C)C)C(=O)O)CCN(C(=O)OC(C)(C)C)C3)cc1 [Example 27, (S)-2-(tert-Butoxy)-2-(2-(tert-butoxycarbonyl)-5,8-dimethyl-7-(p-tolyl)-1,2,3,4-tetrahydroisoquinolin-6-yl)acetic Acid] | 114 nM |
| Cc1ccc(-c2c(C)c3c(c(C)c2[C@H](OC(C)(C)C)C(=O)O)CCN(C2CCOCC2)C3)cc1 [Example 28, (S)-2-(tert-Butoxy)-2-(5,8-dimethyl-2-(tetrahydro-2H-pyran-4-yl)-7-(p-tolyl)-1,2,3,4-tetrahydroisoquinolin-6-yl)acetic Acid] | 378 nM |
